Data published in ChEMBL document CHEMBL2384949, “Nitroimidazolyl hydrazones are better amoebicides than their cyclized 1,3,4-oxadiazoline analogues: In vitro studies and Lipophilic efficiency analysis” (Eur J Med Chem, 2013).

Legend:
Entamoeba histolytica = assay: Antiamoebic activity against Entamoeba histolytica HM-1:IMSS trophozoites after 72 hrs by microdilution method; format: functional, organism-based
[1] = Cytotoxicity against human HepG2 cells assessed as cell viability at 3.13 uM after 48 hrs by MTT assay; format: cell-based; conditions: read-out: Activity
HepG2 [2] = assay: Cytotoxicity against human HepG2 cells after 48 hrs by MTT assay; format: cell-based; conditions: for IC50: Homo sapiens, HepG2, 48 h; for Activity: human, hepg2, 48 h
[3] = Safety index, ratio of IC50 for human HepG2 cells to IC50 for Entamoeba histolytica HM-1:IMSS trophozoites
HepG2 [4] = assay: Cytotoxicity against human HepG2 cells assessed as cell viability at 50 to 100 uM after 48 hrs by MTT assay; format: cell-based; conditions: hepg2, 48 h
[5] = Cytotoxicity against human HepG2 cells assessed as cell viability at 100 uM after 48 hrs by MTT assay; format: cell-based; conditions: read-out: Activity
[6] = Cytotoxicity against human HepG2 cells assessed as cell viability up to 25 uM after 48 hrs by MTT assay; format: cell-based; conditions: read-out: Activity

SMILES	IC50 (Entamoeba histolytica; read-out: IC50) [µM]	IC50 (Entamoeba histolytica; read-out: pIC50 (converted)) [µM]	other results
Cc1ncc([N+](=O)[O-])n1CC(=O)N/N=C/c1ccccc1Cl	3.86	3.86	–
COc1cc(C2OC(Cn3c([N+](=O)[O-])cnc3C)=NN2C(C)=O)cc(OC)c1OC (stereo not drawn)	5.82	5.82	–
COc1cc(/C=N/NC(=O)Cn2c([N+](=O)[O-])cnc2C)cc(OC)c1OC	4.12	4.12	–
CC(=O)N1N=C(Cn2c([N+](=O)[O-])cnc2C)OC1c1ccccc1 (stereo not drawn)	9.82	9.84	–
CC(=O)N1N=C(Cn2c([N+](=O)[O-])cnc2C)OC1c1ccccc1Cl (stereo not drawn)	6.84	6.85	–
CC(=O)N1N=C(Cn2c([N+](=O)[O-])cnc2C)OC1c1cccc(Cl)c1 (stereo not drawn)	6.32	6.32	–
CC(=O)N1N=C(Cn2c([N+](=O)[O-])cnc2C)OC1c1ccc(Cl)cc1 (stereo not drawn)	5.4	5.41	–
CC(=O)N1N=C(Cn2c([N+](=O)[O-])cnc2C)OC1c1cc(C)ccc1C (stereo not drawn)	4.38	4.39	–
CC(=O)N1N=C(Cn2c([N+](=O)[O-])cnc2C)OC1c1ccc(C(C)C)cc1 (stereo not drawn)	4.88	4.89	–
COc1ccc(OC)c(C2OC(Cn3c([N+](=O)[O-])cnc3C)=NN2C(C)=O)c1 (stereo not drawn)	4.62	4.62	–
Cc1ncc([N+](=O)[O-])n1CC(=O)N/N=C/c1ccccc1	4.28	4.29	–
Cc1ncc([N+](=O)[O-])n1CCO [METRONIDAZOLE]	–	–	viability at 48 h, 3.13 µM [1]: 98%; IC50 (HepG2 [2]): > 100 µM; Activity (HepG2 [2]): Dose-dependent effect; selectivity ratio ([3]; hepg2): > 55.5; Activity (HepG2 [4]): Non-toxic; viability at 48 h, 100 µM [5]: ≥ 68%; viability at 48 h [6]: ≥ 88%

Continued, in another order:

IC50 (Entamoeba histolytica; read-out: IC50) [µM]	IC50 (Entamoeba histolytica; read-out: pIC50 (converted)) [µM]	SMILES	other results
3.68	3.68	Cc1ncc([N+](=O)[O-])n1CC(=O)N/N=C/c1ccc(C(C)C)cc1	–
0.81	0.811	COc1ccc(/C=N/NC(=O)Cn2c([N+](=O)[O-])cnc2C)cc1	viability at 48 h, 3.13 µM [1]: 98%; IC50 (HepG2 [2]): > 100 µM; Activity (HepG2 [2]): Dose-dependent effect; selectivity ratio ([3]; HepG2 cells): > 123; Activity (HepG2 [4]): Non-toxic; viability at 48 h, 100 µM [5]: ≥ 68%; viability at 48 h [6]: ≥ 88%
0.96	0.962	Cc1ccc(/C=N/NC(=O)Cn2c([N+](=O)[O-])cnc2C)cc1	viability at 48 h, 3.13 µM [1]: 98%; IC50 (HepG2 [2]): > 100 µM; Activity (HepG2 [2]): Dose-dependent effect; selectivity ratio ([3]; HepG2 cells): > 104; Activity (HepG2 [4]): Non-toxic; viability at 48 h, 100 µM [5]: ≥ 68%; viability at 48 h [6]: ≥ 88%
3.82	3.83	Cc1ncc([N+](=O)[O-])n1CC(=O)N/N=C/c1cccc(Cl)c1	–
3.64	3.65	Cc1ncc([N+](=O)[O-])n1CC(=O)N/N=C/c1ccc(Cl)cc1	–
1.32	1.32	CCc1ccc(/C=N/NC(=O)Cn2c([N+](=O)[O-])cnc2C)cc1	viability at 48 h, 3.13 µM [1]: 98%; IC50 (HepG2 [2]): > 100 µM; Activity (HepG2 [2]): Dose-dependent effect; selectivity ratio ([3]; HepG2 cells): > 75.8; Activity (HepG2 [4]): Non-toxic; viability at 48 h, 100 µM [5]: ≥ 68%; viability at 48 h [6]: ≥ 88%
2.58	2.58	Cc1ccc(C)c(/C=N/NC(=O)Cn2c([N+](=O)[O-])cnc2C)c1	–
1.65	1.65	CCOc1ccc(/C=N/NC(=O)Cn2c([N+](=O)[O-])cnc2C)cc1	viability at 48 h, 3.13 µM [1]: 98%; IC50 (HepG2 [2]): > 100 µM; Activity (HepG2 [2]): Dose-dependent effect; selectivity ratio ([3]; HepG2 cells): > 60.6; Activity (HepG2 [4]): Non-toxic; viability at 48 h, 100 µM [5]: ≥ 68%; viability at 48 h [6]: ≥ 88%
2.64	2.64	COc1ccc(OC)c(/C=N/NC(=O)Cn2c([N+](=O)[O-])cnc2C)c1	–
2.48	2.48	CC(=O)N1N=C(Cn2c([N+](=O)[O-])cnc2C)OC1c1ccc(C)cc1 (stereo not drawn)	–
2.62	2.62	CCc1ccc(C2OC(Cn3c([N+](=O)[O-])cnc3C)=NN2C(C)=O)cc1 (stereo not drawn)	–
2.18	2.18	COc1ccc(C2OC(Cn3c([N+](=O)[O-])cnc3C)=NN2C(C)=O)cc1 (stereo not drawn)	–
2.32	2.32	CCOc1ccc(C2OC(Cn3c([N+](=O)[O-])cnc3C)=NN2C(C)=O)cc1 (stereo not drawn)	–
